The values that follow come from US20260317312A1, “ISOXAZOLIDINES AS RIPK1 INHIBITORS AND USE THEREOF” (GENZYME CORPORATION, priority 2023, published 2026).

pIC50: −log10 of the molar value.

The subject of one assay is U937 cells. The assay can be described thus: Cellular assay in U937 cells to measure activity of RIPK1-inhibitors on cell death (necroptosis). It is filed as cell-based. The conditions noted are these: overnight (18 to 24 hrs), 37° C., MTS readout. The source says:
Upon TNF-Receptor I ligation, Ser/Thr kinase RIPK1 is recruited to a transient receptor complex I. Upon modification of RIPK1 which promotes activation of RIPK1, complex lib can form, that involves recruitment of RIPK3 and MLKL (mixed lineage-kinase domain-like protein) which then translocates from the cytosol to the plasma membrane to execute cell death (Cai, Z. et al, Nat. Cell Biol. (2014)16:55-65).
Cell death was quantified in 96 well plates by determination of the amount of live cell using a CellTiter 96 Aqueous reagent (Promega), a calorimetric method to measure the number of live cells by reducing tetrazolium compound [3-(4,5-dimethylthiazol-2-yl)-5-(3-carboxymethoxyphenyl)-2-(4-sulfophenyl)-2H-tetrazolium, inner salt; MTS] into formazan. Absorbance of formazan was read at 490 nm. The inhibitory activity of the test compound was quantified in a concentration response curve (CRC) experiment.
Compounds were obtained as 10 mM stock solutions and were diluted 1 to 10 volumes with DMSO to yield a 1 mM solution. From this solution 2 μl were diluted with 998 μl growth medium. 100 μl of 2 μM compound solution was further diluted sequentially with a dilution factor of 2.5 by adding 150 μl growth medium. A total of 10 concentrations were tested ranging from 10 μM to 0.26 nM or from 1 μM to 0.07 nM.
U937 cells were cultured in RPM11640 Glutamax and 10% heat inactivated FBS. 50 μl cell suspension containing 1×10^6 cells/ml supplemented with 50 μM zVAD.fmk (Benzyloxycarbonyl-Val-Ala-Asp (Ome) fluoromethylketone) and 100 ng/ml recombinant human TNFα were dispensed in each well of a 96-well plate. 50 μl of compound dilutions (described in Cellular assay in U937 cells) were added and the cell suspension incubated overnight (18 to 24 hrs) at 37° C., 5% CO2 in a humidified atmosphere (95% rH). High (no compound) and low control (no TNFα, zVAD.fmk) were tested with 7 replicates; all compound concentrations were tested in duplicates on each experimental plate.
CellTiter 96 Aqueous reagent was mixed (100 μl PMS (phenazine methosulfate) solution/2 ml MTS (3-(4,5-[…])-5-(3-carboxymethoxyphenyl)-2-(4-sulfophenyl)-2H-tetrazolium, inner salt) solution) and 20 μl were added per well. After 4 hrs incubation at 37° C. (5% CO2 95% rH) optical density was measured at 490 nm on a microplate reader (Tecan Infinite M1000).
The % inhibition is expressed as percentage of the maximal inhibition value obtained in the absence of TNFα/zVAD.fmc.

Assay [1] has as its target T1, hRIPK1 (aa 1-375) fusion protein (Homo sapiens, UniProt Q13546).
T1 construct: hRIPK1 (aa 1-375) fusion protein
T1 sequence (Q13546 1-375): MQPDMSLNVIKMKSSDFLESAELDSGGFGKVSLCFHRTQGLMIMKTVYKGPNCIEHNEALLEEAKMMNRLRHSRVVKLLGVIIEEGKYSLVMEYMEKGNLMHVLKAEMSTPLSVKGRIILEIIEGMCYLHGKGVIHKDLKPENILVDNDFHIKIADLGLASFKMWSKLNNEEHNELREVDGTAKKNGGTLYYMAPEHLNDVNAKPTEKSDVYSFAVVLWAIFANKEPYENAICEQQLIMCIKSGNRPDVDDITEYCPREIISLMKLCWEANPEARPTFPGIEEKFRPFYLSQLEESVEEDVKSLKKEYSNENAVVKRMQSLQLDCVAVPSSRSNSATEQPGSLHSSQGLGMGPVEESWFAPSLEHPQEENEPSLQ
The assay can be described thus: Receptor-Interacting Protein Kinase 1 inhibition, ADP Glo assay (conversion of ATP to ADP due to autophosphorylation). It is filed as biochemical. The following applies: ATP 50 μM, 30 min preincubation, 240 min incubation, room temperature, DMSO 1%. Here is the method: The catalytic activity of RIPK1 was measured by monitoring the conversion of Adenosine triphosphate (ATP) to Adenosine diphosphate (ADP) due to autophosphorylation using an ADP-Glo kinase kit (Promega, catalog no. V9104).
In detail, 2 μl recombinantly produced hRIPK1 (aa 1-375) fusion protein (end concentration 3.6 μg/ml) and 2 μl compound (end concentration 33300-1.69 nM; DMSO end concentration 1%) were incubated for 30 minutes at room temperature and then 2 μl ATP (ADP Glo kit, end concentration 50 μM) were added. After another 240 minutes incubation at room temperature, 5 μl Promega ADP-Glo reagent I was added to quench the reaction and deplete unconsumed ATP. After an incubation period of 30 minutes, 10 μl Promega ADP-Glo detection reagent II was added resulting in conversion of ADP to ATP, which generates a light-reaction between luciferase and luciferin. Luminescence was quantified after 30 minutes with a Pherastar FS (BMG LABTECH, Ortenberg).
The adjustment was obtained by nonlinear regression using the Levenberg Marquardt algorithm.
For orientation: ADP-Glo turns the ADP formed in a reaction into a luminescent signal.

Setting [2] is: Homo sapiens, U-937, TNFα/zVAD.fmk induced cell death (necroptosis).
Setting [3] is: TNFα/zVAD.fmk induced cell death (necroptosis).

By pIC50 is commonly meant the IC50 on a negative log10 scale, so that one unit is a factor of ten. A higher pIC50 goes with a low IC50. Regarding `Cc1ccc(OC[C@H]2CC[C@H](C(=O)N3OCC[C@H]3c3cc(F)cc(C#N)c3)CC2)cc1C(N)=O` [Compound 85, trans-5-((4-((S)-3-(3-cyano-5-fluorophenyl)isoxazolidine-2-carbonyl)cyclohexyl)methoxy)-2-methylbenzamide], the pIC50 is 7.57 with U937 cells (setting [2]) and 7.55 in assay [1].

Regarding `N#Cc1cc(F)cc([C@@H]2CCON2C(=O)[C@H]2CC[C@H](CNc3ccc(F)c(C#N)c3)CC2)c1` [Compound 35, trans-5-(((4-((S)-3-(3-cyano-5-fluorophenyl)isoxazolidine-2-carbonyl)cyclohexyl)methyl)amino)-2-fluorobenzonitrile], the negative logarithm of the IC50 (pIC50) was 8.40 with U937 cells (setting [3]) and 7.74 in assay [1].

Turning to `CC1(C)OC(=O)N(c2ccc(F)c(O[C@H]3CC[C@@H](C(=O)N4OCC[C@H]4c4cc(F)cc(C#N)c4)CC3)c2)C1=O` [Compound 81, cis-3-((S)-2-(4-(5-(5,5-dimethyl-2,4-dioxooxazolidin-3-yl)-2-fluorophenoxy)cyclohexane-1-carbonyl)isoxazolidin-3-yl)-5-fluorobenzonitrile], the values for the negative logarithm of the IC50 (pIC50) (in the assay on U937 cells (setting [2]); in assay [1]) were 6.07 and 7.04, respectively.

With `O=C([C@H]1C[C@@H](n2cnc3ccccc32)C1)N1OCC[C@H]1c1cc(F)cc(F)c1` [Compound 41, cis-(3-(1H-benzo[d]imidazol-1-yl)cyclobutyl)((S)-3-(3,5-difluorophenyl)isoxazolidin-2-yl)methanone], the figures for the pIC50 (with U937 cells (setting [2]); in assay [1]) were 7.21 and 7.80, respectively.

Take `N#Cc1cc(N[C@H]2C[C@@H](C(=O)N3OCC[C@H]3c3cncc(F)c3)C2)ccc1F` [Compound 33, cis-2-fluoro-5-((3-((S)-3-(5-fluoropyridin-3-yl)isoxazolidine-2-carbonyl)cyclobutyl)amino)benzonitrile]: the pIC50 with U937 cells (setting [3]) is 7.21; in assay [1], 7.66.

As for `N#Cc1cc(F)cc(OC[C@H]2CC[C@H](C(=O)N3OCC[C@H]3c3cnccn3)CC2)c1` [Compound 104, trans-3-fluoro-5-[[4-[(3S)-3-pyrazin-2-ylisoxazolidine-2-carbonyl]cyclohexyl]methoxy]benzonitrile], the pIC50 in the assay with U937 cells (setting [2]) was 7.52; in assay [1] it was 7.62.

Turning to `N#Cc1cc(F)cc(N[C@H]2CC[C@@H](C(=O)N3OCC[C@H]3c3cc(F)cc(C#N)c3)CC2)c1` [Compound 39, cis-3-((S)-2-(4-((3-cyano-5-fluorophenyl)amino)cyclohexane-1-carbonyl)isoxazolidin-3-yl)-5-fluorobenzonitrile], the pIC50 in the assay with U937 cells (setting [2]) is 6.40; in assay [1], 6.95.

Take `N#Cc1cc(NC[C@H]2CC[C@H](C(=O)N3OCC[C@H]3c3cncc(F)c3)CC2)ccc1F` [Compound 34, trans-2-fluoro-5-(((4-((S)-3-(5-fluoropyridin-3-yl)isoxazolidine-2-carbonyl)cyclohexyl)methyl)amino)benzonitrile]: the pIC50 in the assay on U937 cells (setting [2]) is 7.96; in assay [1], 7.70.

Turning to `COC(=O)c1ccnc(N[C@H]2C[C@@H](C(=O)N3OCC[C@H]3c3cc(F)cc(F)c3)C2)n1` [Compound 3, methyl cis-2-((3-((S)-3-(3,5-difluorophenyl)isoxazolidine-2-carbonyl)cyclobutyl)amino)pyrimidine-4-carboxylate], the negative-log IC50 (pIC50) is 6.27 with U937 cells (setting [2]) and 7.33 in assay [1].

In the case of `C[C@]1(C(=O)N2OCC[C@H]2c2cc(F)cc(F)c2)C[C@@H](Nc2nccc(C#N)n2)C1` [Compound 5, cis-2-((3-((S)-3-(3,5-difluorophenyl)isoxazolidine-2-carbonyl)-3-methylcyclobutyl)amino)pyrimidine-4-carbonitrile], the pIC50 in the assay on U937 cells (setting [2]) is 7.12; in assay [1] it was 7.42.

As to `O=C([C@H]1C[C@@H](n2cnc3ccccc32)C1)N1OCC[C@H]1c1cncc(F)c1` [Compound 42, cis-(3-(1H-benzo[d]imidazol-1-yl)cyclobutyl)((S)-3-(5-fluoropyridin-3-yl)isoxazolidin-2-yl)methanone], the values for the pIC50 (in the assay on U937 cells (setting [2]); in assay [1]) were 6.04 and 6.81, respectively.

Regarding `N#Cc1ccnc(N[C@H]2C[C@@H](C(=O)N3OCC[C@H]3c3ccc(Cl)cc3)C2)n1` [Compound 24, cis-2-((3-((S)-3-(4-chlorophenyl)isoxazolidine-2-carbonyl)cyclobutyl)amino)pyrimidine-4-carbonitrile], the pIC50 was 6.58 in the assay on U937 cells (setting [3]) and 7.89 in assay [1].

On to `C[C@]1(C(=O)N2OCC[C@H]2c2cc(F)cc(F)c2)C[C@@H](Nc2ncnc(C(N)=O)c2F)C1` [Compound 11, cis-6-((3-((S)-3-(3,5-difluorophenyl)isoxazolidine-2-carbonyl)-3-methylcyclobutyl)amino)-5-fluoropyrimidine-4-carboxamide], for which the pIC50 is 6.36 in the assay with U937 cells (setting [2]) and 7.21 in assay [1].

Turning to `NC(=O)c1ccnc(N[C@H]2CC[C@@H](C(=O)N3OCC[C@H]3c3ccc(Cl)cc3)CC2)n1` [Compound 12, cis-2-((4-((S)-3-(4-chlorophenyl)isoxazolidine-2-carbonyl)cyclohexyl)amino)pyrimidine-4-carboxamide], the figures for the negative-log IC50 (pIC50) (with U937 cells (setting [2]); in assay [1]) were 6.25 and 7.46, respectively.

`N#Cc1ccnc(N[C@H]2C[C@@H](C(=O)N3OCC[C@H]3c3cc(F)cc(F)c3)C2)n1` [Compound 2, cis-2-((3-((S)-3-(3,5-difluorophenyl)isoxazolidine-2-carbonyl)cyclobutyl)amino)pyrimidine-4-carbonitrile]: the negative logarithm of the IC50 (pIC50) was 7.00 in the assay on U937 cells (setting [2]) and 7.66 in assay [1].

With `N#Cc1cccc(OC[C@H]2CC[C@H](C(=O)N3OCC[C@H]3c3cncc(C#N)c3)CC2)c1` [Compound 71, trans-5-((S)-2-(4-((3-cyanophenoxy)methyl)cyclohexane-1-carbonyl)isoxazolidin-3-yl)nicotinonitrile], the pIC50 in the assay on U937 cells (setting [2]) is 8.22; in assay [1], 7.85.

For the molecule `N#Cc1cc(F)cc([C@@H]2CCON2C(=O)[C@H]2C[C@@H](Nc3nccc(C#N)n3)C2)c1` [Compound 19, cis-2-((3-((S)-3-(3-cyano-5-fluorophenyl)isoxazolidine-2-carbonyl)cyclobutyl)amino)pyrimidine-4-carbonitrile], the negative logarithm of the IC50 (pIC50) is 6.12 with U937 cells (setting [2]) and 7.18 in assay [1].

Consider `N#Cc1cc(F)cc(OC[C@H]2CC[C@H](C(=O)N3OCC[C@H]3c3cc(F)cc(C#N)c3)CC2)c1` [Compound 49, trans-3-((S)-2-(4-((3-cyano-5-fluorophenoxy)methyl)cyclohexane-1-carbonyl)isoxazolidin-3-yl)-5-fluorobenzonitrile], for which the negative logarithm of the IC50 (pIC50) in the assay on U937 cells (setting [2]) is 7.74; in assay [1] it was 7.36.

Turning to `N#Cc1cc(F)cc([C@@H]2CCON2C(=O)[C@H]2CC[C@H](CNc3cc(C(N)=O)ncn3)CC2)c1` [Compound 29, trans-6-(((4-((S)-3-(3-cyano-5-fluorophenyl)isoxazolidine-2-carbonyl)cyclohexyl)methyl)amino)pyrimidine-4-carboxamide], the pIC50 was 6.25 in the assay on U937 cells (setting [2]) and 7.07 in assay [1].
